{"source": "patent US20210254056A1", "about": "“IDENTIFICATION AND TARGETED MODULATION OF GENE SIGNALING NETWORKS” (CAMP4 THERAPEUTICS CORPORATION, priority 2017, published 2021)", "test_system": "hepatocytes", "experiment": "RNA-seq of hepatocytes treated with Phase III failure compounds", "settings": "hepatocytes", "protocol": "RNA-seq was performed to determine the effects of the compounds on hepatocytes.\nSignificance was determined by the criteria of FPKM≥0.5, a log 2(fold-change)≥1, and a […].", "data": [{"smiles": "CCC(CC)[C@H](NC(C)=O)[C@@H]1[C@H](O)[C@@H](C(=O)O)C[C@H]1NC(=N)N.O.O.O", "note": "[peramivir (trihydrate), peramivir]", "values": [{"measurement": "RNA-seq results: SLC33A1", "setting": "gene SLC33A1", "value": "−0.02"}, {"measurement": "RNA-seq results, SLC35C1", "setting": "gene SLC35C1", "value": 0.17}, {"measurement": "RNA-seq results: SLC35C1", "setting": "gene SLC35C1", "value": 0.07}, {"measurement": "RNA-seq results, SLC39A4", "setting": "gene SLC39A4", "value": 0.31}, {"measurement": "RNA-seq results: SLC39A4", "setting": "gene SLC39A4", "value": 0.32}, {"measurement": "RNA-seq results, SLC40A1", "setting": "gene SLC40A1", "value": 0.39}, {"measurement": "RNA-seq results: SLC40A1", "setting": "gene SLC40A1", "value": "−0.18"}, {"measurement": "RNA-seq results, SLC46A1", "setting": "gene SLC46A1", "value": 0.08}, {"measurement": "RNA-seq results: SLC46A1", "setting": "gene SLC46A1", "value": 0.17}, {"measurement": "RNA-seq results, SLC51A", "setting": "gene SLC51A", "value": 0.08}, {"measurement": "RNA-seq results: SLC51A", "setting": "gene SLC51A", "value": "−0.03"}, {"measurement": "RNA-seq results, SLC51B", "setting": "gene SLC51B", "value": 0.29}, {"measurement": "RNA-seq results: SLC51B", "setting": "gene SLC51B", "value": 0.08}, {"measurement": "RNA-seq results, SLCO1B1", "setting": "gene SLCO1B1", "value": "−0.33"}, {"measurement": "RNA-seq results: SLCO1B1", "setting": "gene SLCO1B1", "value": "−0.23"}, {"measurement": "RNA-seq results, SLCO4C1", "setting": "gene SLCO4C1", "value": "−0.39"}, {"measurement": "RNA-seq results: SLCO4C1", "setting": "gene SLCO4C1", "value": "−0.05"}, {"measurement": "RNA-seq results, SMAD4", "setting": "gene SMAD4", "value": "−0.2"}, {"measurement": "RNA-seq results: SMAD4", "setting": "gene SMAD4", "value": "−0.17"}, {"measurement": "RNA-seq results, SMARCB1", "setting": "gene SMARCB1", "value": 0.11}, {"measurement": "RNA-seq results: SMARCB1", "setting": "gene SMARCB1", "value": "−0.19"}, {"measurement": "RNA-seq results, SNX10", "setting": "gene SNX10", "value": "−0.36"}, {"measurement": "RNA-seq results: SNX10", "setting": "gene SNX10", "value": "−0.57"}, {"measurement": "RNA-seq results, SORT1", "setting": "gene SORT1", "value": "−0.15"}, {"measurement": "RNA-seq results: SORT1", "setting": "gene SORT1", "value": "−0.12"}, {"measurement": "RNA-seq results, SPP2", "setting": "gene SPP2", "value": "−0.12"}, {"measurement": "RNA-seq results: SPP2", "setting": "gene SPP2", "value": "−0.17"}, {"measurement": "RNA-seq results, SPRTN", "setting": "gene SPRTN", "value": "−0.17"}, {"measurement": "RNA-seq results: SPRTN", "setting": "gene SPRTN", "value": "−0.18"}, {"measurement": "RNA-seq results, ST3GAL5", "setting": "gene ST3GAL5", "value": "−0.19"}, {"measurement": "RNA-seq results: ST3GAL5", "setting": "gene ST3GAL5", "value": "−0.11"}, {"measurement": "RNA-seq results, STAT1", "setting": "gene STAT1", "value": "−0.31"}, {"measurement": "RNA-seq results: STAT1", "setting": "gene STAT1", "value": "−0.45"}, {"measurement": "RNA-seq results, STEAP3", "setting": "gene STEAP3", "value": 0.03}, {"measurement": "RNA-seq results: STEAP3", "setting": "gene STEAP3", "value": 0.03}, {"measurement": "RNA-seq results, STIM1", "setting": "gene STIM1", "value": 0.1}, {"measurement": "RNA-seq results: STIM1", "setting": "gene STIM1", "value": "−0.07"}, {"measurement": "RNA-seq results, SULT2A1", "setting": "gene SULT2A1", "value": 0.65}, {"measurement": "RNA-seq results: SULT2A1", "setting": "gene SULT2A1", "value": "−0.07"}, {"measurement": "RNA-seq results, SUOX", "setting": "gene SUOX", "value": "−0.18"}, {"measurement": "RNA-seq results: SUOX", "setting": "gene SUOX", "value": "−0.01"}, {"measurement": "RNA-seq results, TARS2", "setting": "gene TARS2", "value": 0.2}, {"measurement": "RNA-seq results: TARS2", "setting": "gene TARS2", "value": "−0.08"}, {"measurement": "RNA-seq results, TAT", "setting": "gene TAT", "value": "−0.56"}, {"measurement": "RNA-seq results: TAT", "setting": "gene TAT", "value": 0.16}, {"measurement": "RNA-seq results, TCIRG1", "setting": "gene TCIRG1", "value": 0.29}, {"measurement": "RNA-seq results: TCIRG1", "setting": "gene TCIRG1", "value": 0.39}, {"measurement": "RNA-seq results, TCTN3", "setting": "gene TCTN3", "value": "−0.04"}, {"measurement": "RNA-seq results: TCTN3", "setting": "gene TCTN3", "value": "−0.34"}, {"measurement": "RNA-seq results, TDO2", "setting": "gene TDO2", "value": "−0.58"}, {"measurement": "RNA-seq results: TDO2", "setting": "gene TDO2", "value": "−0.14"}, {"measurement": "RNA-seq results, TF", "setting": "gene TF", "value": 0.02}, {"measurement": "RNA-seq results: TF", "setting": "gene TF", "value": "−0.09"}, {"measurement": "RNA-seq results, TFR2", "setting": "gene TFR2", "value": 0.21}, {"measurement": "RNA-seq results: TFR2", "setting": "gene TFR2", "value": 0.07}, {"measurement": "RNA-seq results, TGFB1", "setting": "gene TGFB1", "value": "−0.25"}, {"measurement": "RNA-seq results: TGFB1", "setting": "gene TGFB1", "value": "−0.16"}, {"measurement": "RNA-seq results, THPO", "setting": "gene THPO", "value": "−0.03"}, {"measurement": "RNA-seq results: THPO", "setting": "gene THPO", "value": 0.03}, {"measurement": "RNA-seq results, THRB", "setting": "gene THRB", "value": "−0.28"}, {"measurement": "RNA-seq results: THRB", "setting": "gene THRB", "value": "−0.18"}, {"measurement": "RNA-seq results, TK2", "setting": "gene TK2", "value": 0.12}, {"measurement": "RNA-seq results: TK2", "setting": "gene TK2", "value": 0.15}, {"measurement": "RNA-seq results, TMEM67", "setting": "gene TMEM67", "value": "−0.01"}, {"measurement": "RNA-seq results: TMEM67", "setting": "gene TMEM67", "value": 0.04}, {"measurement": "RNA-seq results, TMEM135", "setting": "gene TMEM135", "value": "−0.13"}, {"measurement": "RNA-seq results: TMEM135", "setting": "gene TMEM135", "value": "−0.41"}, {"measurement": "RNA-seq results, TMEM165", "setting": "gene TMEM165", "value": "−0.14"}, {"measurement": "RNA-seq results: TMEM165", "setting": "gene TMEM165", "value": "−0.17"}, {"measurement": "RNA-seq results, TMLHE", "setting": "gene TMLHE", "value": "−0.03"}, {"measurement": "RNA-seq results: TMLHE", "setting": "gene TMLHE", "value": "−0.50"}, {"measurement": "RNA-seq results, TMPRSS6", "setting": "gene TMPRSS6", "value": 0.1}, {"measurement": "RNA-seq results: TMPRSS6", "setting": "gene TMPRSS6", "value": 0.34}, {"measurement": "RNA-seq results, TNFRSF1A", "setting": "gene TNFRSF1A", "value": 0.25}, {"measurement": "RNA-seq results: TNFRSF1A", "setting": "gene TNFRSF1A", "value": "−0.13"}, {"measurement": "RNA-seq results, TNFSF11", "setting": "gene TNFSF11", "value": "−0.54"}, {"measurement": "RNA-seq results: TNFSF11", "setting": "gene TNFSF11", "value": "−0.28"}, {"measurement": "RNA-seq results, TP53", "setting": "gene TP53", "value": "−0.02"}, {"measurement": "RNA-seq results: TP53", "setting": "gene TP53", "value": 0.04}, {"measurement": "RNA-seq results, TTC21B", "setting": "gene TTC21B", "value": "−0.14"}, {"measurement": "RNA-seq results: TTC21B", "setting": "gene TTC21B", "value": "−0.28"}, {"measurement": "RNA-seq results, TTPA", "setting": "gene TTPA", "value": "−0.46"}, {"measurement": "RNA-seq results: TTPA", "setting": "gene TTPA", "value": "−0.20"}, {"measurement": "RNA-seq results, TTR", "setting": "gene TTR", "value": 0.19}, {"measurement": "RNA-seq results: TTR", "setting": "gene TTR", "value": "−0.23"}, {"measurement": "RNA-seq results, TYMP", "setting": "gene TYMP", "value": 0.37}, {"measurement": "RNA-seq results: TYMP", "setting": "gene TYMP", "value": 0.37}, {"measurement": "RNA-seq results, UBR1", "setting": "gene UBR1", "value": "−0.38"}, {"measurement": "RNA-seq results: UBR1", "setting": "gene UBR1", "value": "−0.15"}, {"measurement": "RNA-seq results, UGT1A1", "setting": "gene UGT1A1", "value": "−0.06"}, {"measurement": "RNA-seq results: UGT1A1", "setting": "gene UGT1A1", "value": "−0.38"}, {"measurement": "RNA-seq results, UGT2B28", "setting": "gene UGT2B28", "value": 0.09}, {"measurement": "RNA-seq results: UGT2B28", "setting": "gene UGT2B28", "value": 0.41}, {"measurement": "RNA-seq results, UNC13D", "setting": "gene UNC13D", "value": 0.05}, {"measurement": "RNA-seq results: UNC13D", "setting": "gene UNC13D", "value": 0.44}, {"measurement": "RNA-seq results, UPB1", "setting": "gene UPB1", "value": 0.33}, {"measurement": "RNA-seq results: UPB1", "setting": "gene UPB1", "value": 0.19}, {"measurement": "RNA-seq results, UQCRB", "setting": "gene UQCRB", "value": 0.17}, {"measurement": "RNA-seq results: UQCRB", "setting": "gene UQCRB", "value": "−0.18"}, {"measurement": "RNA-seq results, UROC1", "setting": "gene UROC1", "value": "−0.25"}, {"measurement": "RNA-seq results: UROC1", "setting": "gene UROC1", "value": "−0.26"}, {"measurement": "RNA-seq results, UTRN", "setting": "gene UTRN", "value": "−0.35"}, {"measurement": "RNA-seq results: UTRN", "setting": "gene UTRN", "value": "−0.06"}, {"measurement": "RNA-seq results, VIPAS39", "setting": "gene VIPAS39", "value": 0.05}, {"measurement": "RNA-seq results: VIPAS39", "setting": "gene VIPAS39", "value": "−0.08"}, {"measurement": "RNA-seq results, VLDLR", "setting": "gene VLDLR", "value": 0.62}, {"measurement": "RNA-seq results: VLDLR", "setting": "gene VLDLR", "value": "−0.30"}, {"measurement": "RNA-seq results, VPS13A", "setting": "gene VPS13A", "value": "−0.28"}, {"measurement": "RNA-seq results: VPS13A", "setting": "gene VPS13A", "value": 0.08}, {"measurement": "RNA-seq results, VPS33B", "setting": "gene VPS33B", "value": 0.18}, {"measurement": "RNA-seq results: VPS33B", "setting": "gene VPS33B", "value": 0.13}, {"measurement": "RNA-seq results, WAS", "setting": "gene WAS", "value": 0.19}, {"measurement": "RNA-seq results: WAS", "setting": "gene WAS", "value": 0.03}, {"measurement": "RNA-seq results, WDR35", "setting": "gene WDR35", "value": "−0.19"}, {"measurement": "RNA-seq results: WDR35", "setting": "gene WDR35", "value": "−0.03"}, {"measurement": "RNA-seq results, XDH", "setting": "gene XDH", "value": 0.28}, {"measurement": "RNA-seq results: XDH", "setting": "gene XDH", "value": 0.17}, {"measurement": "RNA-seq results, YARS2", "setting": "gene YARS2", "value": 0}, {"measurement": "YARS2 expression, RNA-seq result", "setting": "gene YARS2", "value": "−0.36"}]}]}
